Experimental data reported in ChEMBL document CHEMBL1697731, “Cheminformatics analysis of assertions mined from literature that describe drug-induced liver injury in different species” (Chem Res Toxicol, 2010).

Legend:
Hepatotoxicity [1] = assay: Literature-mined compound from Fourches et al multi-species drug-induced liver injury (DILI) dataset, effect in rodents; settings: rodentia
Hepatotoxicity [2] = assay: Literature-mined compound from Fourches et al multi-species drug-induced liver injury (DILI) dataset, effect in humans; settings: human
Hepatotoxicity [3] = assay: Literature-mined compound from Fourches et al multi-species drug-induced liver injury (DILI) dataset, effect in non-rodents

In the case of `O=C1CCCC(=O)C1C(=O)c1ccc(C(F)(F)F)cc1[N+](=O)[O-]` [NITISINONE], the Hepatotoxicity (Hepatotoxicity [1]) is reported as “drug-induced liver injury reported”, the Hepatotoxicity (Hepatotoxicity [2]) is reported as “no drug-induced liver injury reported” and the Hepatotoxicity (Hepatotoxicity [3]) is reported as “drug-induced liver injury reported”.

`O=C1CN=C(c2ccccc2)c2cc([N+](=O)[O-])ccc2N1` [NITRAZEPAM] was tested, and the Hepatotoxicity (Hepatotoxicity [1]) was “drug-induced liver injury reported”, the Hepatotoxicity (Hepatotoxicity [2]) was “no drug-induced liver injury reported” and the Hepatotoxicity (Hepatotoxicity [3]) was “no drug-induced liver injury reported”.

With `CCOC(=O)C1=C(C)NC(C)=C(C(=O)OC)C1c1cccc([N+](=O)[O-])c1` (stereo not given) [NITRENDIPINE] the Hepatotoxicity (Hepatotoxicity [1]) was “drug-induced liver injury reported”, the Hepatotoxicity (Hepatotoxicity [2]) was “drug-induced liver injury reported” and the Hepatotoxicity (Hepatotoxicity [3]) was “no drug-induced liver injury reported”.

In the case of `O=C1CN(/N=C/c2ccc([N+](=O)[O-])o2)C(=O)N1` [NITROFURANTOIN], the Hepatotoxicity (Hepatotoxicity [1]; Liver) is reported as “drug-induced liver injury reported”, the Hepatotoxicity (Hepatotoxicity [2]; Liver) is reported as “drug-induced liver injury reported” and the Hepatotoxicity (Hepatotoxicity [3]; Liver) is reported as “drug-induced liver injury reported”.

`NC(=O)N/N=C/c1ccc([N+](=O)[O-])o1` [NITROFURAZONE] was tested, and the Hepatotoxicity (Hepatotoxicity [1]) was “drug-induced liver injury reported”, the Hepatotoxicity (Hepatotoxicity [2]) was “no drug-induced liver injury reported” and the Hepatotoxicity (Hepatotoxicity [3]) was “no drug-induced liver injury reported”.

With `O=[N+]([O-])OCC(CO[N+](=O)[O-])O[N+](=O)[O-]` [NITROGLYCERIN] the Hepatotoxicity (Hepatotoxicity [1]) was “drug-induced liver injury reported”, the Hepatotoxicity (Hepatotoxicity [2]) was “drug-induced liver injury reported” and the Hepatotoxicity (Hepatotoxicity [3]) was “no drug-induced liver injury reported”.

In the case of `CNC(=C[N+](=O)[O-])NCCSCc1csc(CN(C)C)n1` [NIZATIDINE], the Hepatotoxicity (Hepatotoxicity [1]) is reported as “drug-induced liver injury reported”, the Hepatotoxicity (Hepatotoxicity [2]) is reported as “drug-induced liver injury reported” and the Hepatotoxicity (Hepatotoxicity [3]) is reported as “no drug-induced liver injury reported”.

In the case of `CC(Cc1ccc(O)c(O)c1)C(C)Cc1ccc(O)c(O)c1` (stereo not given) [NORDIHYDROGUAIARETIC ACID], the Hepatotoxicity (Hepatotoxicity [1]) is reported as “drug-induced liver injury reported”, the Hepatotoxicity (Hepatotoxicity [2]) is reported as “drug-induced liver injury reported” and the Hepatotoxicity (Hepatotoxicity [3]) is reported as “no drug-induced liver injury reported”.

In the case of `NC[C@H](O)c1ccc(O)c(O)c1` [NOREPINEPHRINE], the Hepatotoxicity (Hepatotoxicity [1]) is reported as “drug-induced liver injury reported”, the Hepatotoxicity (Hepatotoxicity [2]) is reported as “drug-induced liver injury reported” and the Hepatotoxicity (Hepatotoxicity [3]) is reported as “drug-induced liver injury reported”.

For `C#C[C@]1(OC(C)=O)CC[C@H]2[C@@H]3CCC4=CC(=O)CC[C@@H]4[C@H]3CC[C@@]21C` [NORETHINDRONE ACETATE], the Hepatotoxicity (Hepatotoxicity [1]) was “drug-induced liver injury reported”, the Hepatotoxicity (Hepatotoxicity [2]) was “no drug-induced liver injury reported” and the Hepatotoxicity (Hepatotoxicity [3]) was “drug-induced liver injury reported”.

In the case of `CCn1cc(C(=O)O)c(=O)c2cc(F)c(N3CCNCC3)cc21` [NORFLOXACIN], the Hepatotoxicity (Hepatotoxicity [1]; Liver) is reported as “drug-induced liver injury reported”, the Hepatotoxicity (Hepatotoxicity [2]; Liver) is reported as “drug-induced liver injury reported” and the Hepatotoxicity (Hepatotoxicity [3]; Liver) is reported as “no drug-induced liver injury reported”.

In the case of `C#CC1(O)CC[C@H]2[C@@H]3CCC4=CC(=O)CC[C@@H]4[C@H]3CC[C@@]21CC` (stereo not given in full) [NORGESTREL], the Hepatotoxicity (Hepatotoxicity [1]; Liver) is reported as “drug-induced liver injury reported”, the Hepatotoxicity (Hepatotoxicity [2]; Liver) is reported as “drug-induced liver injury reported” and the Hepatotoxicity (Hepatotoxicity [3]; Liver) is reported as “no drug-induced liver injury reported”.

For `CNCCC=C1c2ccccc2CCc2ccccc21` [NORTRIPTYLINE], the Hepatotoxicity (Hepatotoxicity [1]; Liver) was “no drug-induced liver injury reported”, the Hepatotoxicity (Hepatotoxicity [2]; Liver) was “drug-induced liver injury reported” and the Hepatotoxicity (Hepatotoxicity [3]; Liver) was “no drug-induced liver injury reported”.

For `COc1ccc2c(c1OC)C(=O)O[C@@H]2[C@H]1c2c(cc3c(c2OC)OCO3)CCN1C` [NOSCAPINE], the Hepatotoxicity (Hepatotoxicity [1]) was “drug-induced liver injury reported”, the Hepatotoxicity (Hepatotoxicity [2]) was “no drug-induced liver injury reported” and the Hepatotoxicity (Hepatotoxicity [3]) was “no drug-induced liver injury reported”.

With `CO[C@@H]1[C@@H](OC(N)=O)[C@@H](O)[C@H](Oc2ccc3c(O)c(NC(=O)c4ccc(O)c(CC=C(C)C)c4)c(=O)oc3c2C)OC1(C)C` [NOVOBIOCIN] the Hepatotoxicity (Hepatotoxicity [1]) was “drug-induced liver injury reported”, the Hepatotoxicity (Hepatotoxicity [2]) was “drug-induced liver injury reported” and the Hepatotoxicity (Hepatotoxicity [3]) was “no drug-induced liver injury reported”.
